Measured values as given in ChEMBL document CHEMBL1667811, “Influence of pKa on the biotransformation of indene H1-antihistamines by CYP2D6” (Bioorg Med Chem Lett, 2011).
pIC50, pKi: −log10 of the molar value.

What was measured:
Histamine H1 receptor = Histamine H1 receptor (Homo sapiens, UniProt P35367); assay: Binding affinity to histamine H1 receptor
Cytochrome P450 3A4 = Cytochrome P450 3A4 (Homo sapiens, UniProt P08684)
hERG (KCNH2) = hERG (KCNH2) (Homo sapiens, UniProt Q12809); assay: Displacement of labeled dofetilide from human ERG at 3 uM; conditions: probe labeled dofetilide
Chain of hERG (KCNH2) (Q12809 whole entry): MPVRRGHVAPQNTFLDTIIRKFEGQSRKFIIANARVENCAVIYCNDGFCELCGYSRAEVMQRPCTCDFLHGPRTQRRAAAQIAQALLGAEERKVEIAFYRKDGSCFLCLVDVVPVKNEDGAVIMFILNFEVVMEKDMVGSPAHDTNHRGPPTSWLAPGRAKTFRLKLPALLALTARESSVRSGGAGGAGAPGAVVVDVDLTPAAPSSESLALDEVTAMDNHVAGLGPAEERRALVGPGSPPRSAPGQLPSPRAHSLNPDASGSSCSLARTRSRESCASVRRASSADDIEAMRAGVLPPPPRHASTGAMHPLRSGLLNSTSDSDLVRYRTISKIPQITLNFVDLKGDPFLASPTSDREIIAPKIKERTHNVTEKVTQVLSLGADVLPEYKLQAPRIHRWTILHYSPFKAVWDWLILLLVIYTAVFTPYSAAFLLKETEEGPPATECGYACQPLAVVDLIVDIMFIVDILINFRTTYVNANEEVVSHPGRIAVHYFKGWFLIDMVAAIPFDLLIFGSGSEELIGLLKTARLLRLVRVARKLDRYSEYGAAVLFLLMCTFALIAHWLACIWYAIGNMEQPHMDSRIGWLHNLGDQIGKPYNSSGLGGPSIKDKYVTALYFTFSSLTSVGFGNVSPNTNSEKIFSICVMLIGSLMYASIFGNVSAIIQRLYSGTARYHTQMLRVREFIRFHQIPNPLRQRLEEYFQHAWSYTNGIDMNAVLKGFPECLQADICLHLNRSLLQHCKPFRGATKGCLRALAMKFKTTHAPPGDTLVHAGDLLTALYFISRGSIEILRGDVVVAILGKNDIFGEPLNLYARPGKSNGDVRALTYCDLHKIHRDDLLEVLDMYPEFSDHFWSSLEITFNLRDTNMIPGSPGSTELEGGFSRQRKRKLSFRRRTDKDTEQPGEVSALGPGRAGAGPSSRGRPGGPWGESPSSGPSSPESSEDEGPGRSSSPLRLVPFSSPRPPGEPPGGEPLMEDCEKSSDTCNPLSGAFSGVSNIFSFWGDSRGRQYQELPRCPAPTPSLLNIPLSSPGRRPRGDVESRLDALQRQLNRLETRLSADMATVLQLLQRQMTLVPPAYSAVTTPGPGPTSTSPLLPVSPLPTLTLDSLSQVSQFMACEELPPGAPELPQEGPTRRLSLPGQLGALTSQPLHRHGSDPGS

Cytochrome P450 2D6 = Cytochrome P450 2D6 (Homo sapiens, UniProt P10635)
Chain of Cytochrome P450 2D6 (P10635 whole entry): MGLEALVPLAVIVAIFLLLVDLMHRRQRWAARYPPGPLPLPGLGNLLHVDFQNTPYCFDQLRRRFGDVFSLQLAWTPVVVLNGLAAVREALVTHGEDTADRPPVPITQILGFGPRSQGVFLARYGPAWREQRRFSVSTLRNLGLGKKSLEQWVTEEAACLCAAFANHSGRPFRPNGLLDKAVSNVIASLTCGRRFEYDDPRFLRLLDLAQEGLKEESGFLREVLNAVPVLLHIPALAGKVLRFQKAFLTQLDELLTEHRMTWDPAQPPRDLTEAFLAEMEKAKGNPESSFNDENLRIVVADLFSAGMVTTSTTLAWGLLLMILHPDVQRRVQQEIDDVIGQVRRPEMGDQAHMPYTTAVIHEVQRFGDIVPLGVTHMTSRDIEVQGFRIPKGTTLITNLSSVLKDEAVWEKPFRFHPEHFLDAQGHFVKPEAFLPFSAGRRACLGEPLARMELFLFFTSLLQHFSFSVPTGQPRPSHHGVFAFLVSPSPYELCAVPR

[1] = Drug uptake in rat brain at 1 mg/kg, iv after 4 hrs; assay type: ADME, organism-based; design: dose 1 mg/kg, route intravenous; conditions: read-out: Drug uptake
[2] = Ratio of drug level in brain to plasma in rat at 1 mg/kg, iv after 4 hrs; assay type: ADME, organism-based; design: dose 1 mg/kg, route intravenous; conditions: read-out: BPR

Chain of Cytochrome P450 3A4 (P08684 whole entry): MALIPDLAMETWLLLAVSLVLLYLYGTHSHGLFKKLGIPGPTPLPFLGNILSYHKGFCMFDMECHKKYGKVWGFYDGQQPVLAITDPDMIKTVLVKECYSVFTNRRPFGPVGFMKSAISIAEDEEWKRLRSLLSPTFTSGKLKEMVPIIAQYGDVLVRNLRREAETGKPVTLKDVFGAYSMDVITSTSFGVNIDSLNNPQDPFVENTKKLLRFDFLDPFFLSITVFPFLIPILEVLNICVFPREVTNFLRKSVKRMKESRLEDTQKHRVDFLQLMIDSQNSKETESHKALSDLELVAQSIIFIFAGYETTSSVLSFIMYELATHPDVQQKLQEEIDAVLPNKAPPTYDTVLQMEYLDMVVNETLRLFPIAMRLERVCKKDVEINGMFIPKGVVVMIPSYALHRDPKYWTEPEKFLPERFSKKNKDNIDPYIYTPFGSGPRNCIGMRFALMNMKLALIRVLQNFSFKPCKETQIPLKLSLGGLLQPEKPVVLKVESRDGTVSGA
Chain of Histamine H1 receptor (P35367 whole entry): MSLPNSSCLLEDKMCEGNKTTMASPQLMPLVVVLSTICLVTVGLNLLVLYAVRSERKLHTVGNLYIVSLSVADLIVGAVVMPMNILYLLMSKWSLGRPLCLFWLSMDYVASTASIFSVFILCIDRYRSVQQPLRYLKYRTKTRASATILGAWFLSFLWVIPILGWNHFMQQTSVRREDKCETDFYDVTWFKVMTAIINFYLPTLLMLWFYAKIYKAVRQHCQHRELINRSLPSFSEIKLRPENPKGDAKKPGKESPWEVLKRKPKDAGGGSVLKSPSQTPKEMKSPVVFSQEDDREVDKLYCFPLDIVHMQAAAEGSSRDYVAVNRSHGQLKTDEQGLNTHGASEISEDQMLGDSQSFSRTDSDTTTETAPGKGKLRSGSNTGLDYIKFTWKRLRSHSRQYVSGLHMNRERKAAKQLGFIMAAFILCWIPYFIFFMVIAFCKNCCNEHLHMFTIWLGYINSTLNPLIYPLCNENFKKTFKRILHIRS

pKi (Histamine H1 receptor)	pIC50 (Cytochrome P450 3A4)	pIC50 (Cytochrome P450 2D6)	concentration at 4 h [1] [ng/g]	Kp at 4 h [2]	SMILES	inhibition at 3 µM (hERG (KCNH2)) [%]
7.55	5.81	5.25	–	–	C[C@H](C1=C(CCN(C)Cc2nccn2C)Cc2ccccc21)c1cnccn1	0
7.31	< 5.00	5.19	–	–	FC1CN(CCC2=C(Cc3cnccn3)c3ccccc3C2)C1	0
7.98	< 5.00	5.37	57	3.9	FC1CCN(CCC2=C(Cc3cnccn3)c3ccccc3C2)C1 (stereo unspecified)	0
7.86	5.32	5.24	–	–	C[C@H](C1=C(CCN(C)Cc2ccccn2)Cc2ccccc21)c1cnccn1	0
7.39	5.39	6.01	–	–	CCCN(C)CCC1=C(Cc2cnccn2)c2ccccc2C1	0
8.06	5.35	5.23	–	–	C[C@H](C1=C(CCN(C)Cc2ncc[nH]2)Cc2ccccc21)c1cnccn1	0
6.79	5.32	< 5.00	–	–	C[C@H](C1=C(CCN(C)Cc2ncco2)Cc2ccccc21)c1cnccn1	0
8.14	< 5.00	5.36	–	–	CCN(C)CCC1=C(Cc2cnccn2)c2ccccc2C1	0
7.82	< 5.00	5.03	–	–	C[C@H](C1=C(CCN(C)CC2CCOCC2)Cc2ccccc21)c1cnccn1	0
8.09	5.56	5.36	–	–	C[C@H](C1=C(CCN(C)Cc2ccco2)Cc2ccccc21)c1cnccn1	0
8.37	< 5.00	5.05	–	–	c1ccc2c(c1)CC(CCN1CCC1)=C2Cc1cnccn1	0
7.61	< 5.00	< 5.00	–	–	C[C@H](C1=C(CCN(C)Cc2cnccn2)Cc2ccccc21)c1cnccn1	0
–	< 5.00	5.51	–	–	CN(CCF)CCC1=C(Cc2cnccn2)c2ccccc2C1	0
7.89	< 5.00	5.58	–	–	C[C@H](C1=C(CCN(C)CCF)Cc2ccccc21)c1cnccn1	0
6.96	< 5.00	< 5.00	–	–	C[C@H](C1=C(CCN(C)CCC#N)Cc2ccccc21)c1cnccn1	0
7.49	< 5.00	< 5.00	–	–	C[C@H](C1=C(CCN(C)CC#N)Cc2ccccc21)c1cnccn1	0
8.31	–	5.10	–	–	C[C@H](C1=C(CCN(C)Cc2ccncc2)Cc2ccccc21)c1cnccn1	0
7.32	5.55	< 5.00	–	–	C[C@H](C1=C(CCN(C)Cc2nccs2)Cc2ccccc21)c1cnccn1	0
6.60	5.85	5.12	–	–	FC1(F)CCN(CCC2=C(Cc3cnccn3)c3ccccc3C2)C1	0
8.17	5.74	5.85	–	–	C[C@H](C1=C(CCN(C)Cc2cccs2)Cc2ccccc21)c1cnccn1	0
7.04	< 5.30	5.14	–	–	C[C@H](C1=C(CCN(C)CCC(F)(F)F)Cc2ccccc21)c1cnccn1	0
5.34	–	< 5.00	–	–	FC1(F)CN(CCC2=C(Cc3cnccn3)c3ccccc3C2)C1	0
8.55	< 5.00	5.47	–	–	c1ccc2c(c1)CC(CCN1CCCC1)=C2Cc1cnccn1	0
